According to US20080221060A1, “Therapeutic Compounds” (priority 2004, published 2008):

tested on: chronic constriction injury model of neuropathic pain; test: static allodynia, chronic constriction injury of the rat sciatic nerve; type: in vivo; settings: rat CCI, p.o., dose response
Text: The total dose administered is shown on the horizontal axis, and the paw withdrawal threshold (PWT) on the vertical axis.

Row | Structure (SMILES) | inhibition of static allodynia (paw withdrawal threshold)
1 | NCC1(CC(=O)O)CCCCC1 [gabapentin, reference compound] | inhibit static allodynia

biological target: adenosine receptors (rat striatal membranes, [3H]-CGS21680) (Rattus norvegicus, UniProt P30543); test: Ki from displacement of [3H]-CGS21680 in rat striatal membranes at pH 5.5 and pH 7.4; type: binding; parameters: from tissue; host or cells: rat striatum (membranes); settings: (Ki) nM (pH 5.5), pH 5.5; 2 nM [3H]-CGS21680, 90 minutes at 22° C.
Sequence (P30543 whole entry): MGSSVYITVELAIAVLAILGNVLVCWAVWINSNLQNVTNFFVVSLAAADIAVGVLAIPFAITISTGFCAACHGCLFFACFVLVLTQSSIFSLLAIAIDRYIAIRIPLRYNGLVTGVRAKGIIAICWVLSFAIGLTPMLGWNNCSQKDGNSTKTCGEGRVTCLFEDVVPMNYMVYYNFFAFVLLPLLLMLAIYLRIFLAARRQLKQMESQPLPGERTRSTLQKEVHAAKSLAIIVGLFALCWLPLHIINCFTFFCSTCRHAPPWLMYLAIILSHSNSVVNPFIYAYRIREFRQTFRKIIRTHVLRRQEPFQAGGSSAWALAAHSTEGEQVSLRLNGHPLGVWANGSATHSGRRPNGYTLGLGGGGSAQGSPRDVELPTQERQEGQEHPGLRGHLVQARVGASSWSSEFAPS

Row | Structure (SMILES) | Ki
2 | CC(C)=CCNc1ncnc2c1ncn2[C@@H]1O[C@H](CO)[C@@H](O)[C@H]1O [Compound 42] | 91.5 nM

same assay, conditions: (Ki) nM (pH 7.4), pH 7.4; 2 nM [3H]-CGS21680, 90 minutes at 22° C.

Row | Structure (SMILES) | Ki
3 | CC(C)=CCNc1ncnc2c1ncn2[C@@H]1O[C@H](CO)[C@@H](O)[C@H]1O [Compound 42] | 8600 nM

same assay, conditions: pH 5.5; 2 nM [3H]-CGS21680, 90 minutes at 22° C.; read-out: (Ki) nM (pH 5.5)

Row | Structure (SMILES) | Ki
4 | CCCCCCNc1nc(N)c2ncn([C@@H]3O[C@H](CO)[C@@H](O)[C@H]3O)c2n1 [Compound 24] | 0.7 nM
5 | NC(=O)c1nc(N)c2ncn([C@@H]3O[C@H](CO)[C@@H](O)[C@H]3O)c2n1 [Compound 39] | 23 nM
6 | N#Cc1nc(N)c2ncn([C@@H]3O[C@H](CO)[C@@H](O)[C@H]3O)c2n1 [Compound 38] | 25 nM
7 | CCCCCCNc1nc(N)c2nc(C)n([C@@H]3O[C@H](CO)[C@@H](O)[C@H]3O)c2n1 [Compound 61] | 130 nM
8 | Nc1nc(NC2CC3CCC2C3)nc2c1ncn2[C@@H]1O[C@H](CO)[C@@H](O)[C@H]1O (stereo partly drawn) [Compound 25] | 5.5 nM
9 | Nc1nc(Oc2ccc(F)c(F)c2)nc2c1ncn2[C@@H]1O[C@H](CO)[C@@H](O)[C@H]1O [Compound 11] | 63 nM
10 | CNc1ncnc2c1ncn2[C@@H]1O[C@H](C(=O)NC(C)C)[C@@H](O)[C@H]1O [Compound 51] | 188 nM
11 | Nc1nc(Oc2cccc(-c3ccccc3)c2)nc2c1ncn2[C@@H]1O[C@H](CO)[C@@H](O)[C@H]1O [Compound 8] | 0.7 nM
12 | Nc1nc(Oc2cc(F)cc(F)c2F)nc2c1ncn2[C@@H]1O[C@H](CO)[C@@H](O)[C@H]1O [Compound 12] | 46 nM
13 | Cc1ccc(Oc2nc(N)c3ncn([C@@H]4O[C@H](CO)[C@@H](O)[C@H]4O)c3n2)cc1 [Compound 16] | 3.4 nM
14 | CCCCCCNc1nc(N)c2ncn([C@@H]3O[C@H](C(=O)NCCCC)[C@@H](O)[C@H]3O)c2n1 [Compound 54] | 0.3 nM
15 | Cc1nc2c(N)nc(NC3CCCC3)nc2n1[C@@H]1O[C@H](CO)[C@@H](O)[C@H]1O [Compound 60] | 49 nM
16 | Nc1nc(Oc2cccc(Br)c2)nc2c1ncn2[C@@H]1O[C@H](CO)[C@@H](O)[C@H]1O [Compound 15] | 35 nM
17 | Nc1nc(OCC2CCCC2)nc2c1ncn2[C@@H]1O[C@H](CO)[C@@H](O)[C@H]1O [Compound 32] | 0.2 nM
18 | CCCCCCOc1nc(N)c2ncn([C@@H]3O[C@H](CO)[C@@H](O)[C@H]3O)c2n1 [Compound 5] | 3 nM
19 | COc1nc(NCc2ccccc2)c2ncn([C@@H]3O[C@H](CO)[C@@H](O)[C@H]3O)c2n1 [Compound 58] | 4.5 nM
20 | Nc1nc(OCC2CC2)nc2c1ncn2[C@@H]1O[C@H](CO)[C@@H](O)[C@H]1O [Compound 3] | 39 nM
21 | CCNC(=O)NC[C@H]1O[C@@H](n2cnc3c(N)ncnc32)[C@H](O)[C@@H]1O [Compound 56] | 40 nM
22 | COc1nc(N)c2ncn([C@@H]3O[C@H](C(=O)Nc4ccccc4)[C@@H](O)[C@H]3O)c2n1 [Compound 53] | 230 nM
23 | OC[C@H]1O[C@@H](n2cnc3c(OCC4CCCC4)ncnc32)[C@H](O)[C@@H]1O [Compound 48] | 140 nM
24 | Nc1nc(NC2CCCCC2)nc2c1ncn2[C@@H]1O[C@H](CO)[C@@H](O)[C@H]1O [Compound 30, 2-cyclohexylamino adenosine] | 0.4 nM
25 | CC[C@@H](C)Nc1nc(N)c2ncn(C3OC(CO)C(O)C3O)c2n1 (stereo partly drawn) [Compound 22] | 33 nM
26 | Cc1nc2c(N)nc(NC3CCCCC3)nc2n1[C@@H]1O[C@H](CO)[C@@H](O)[C@H]1O [Compound 59] | 31 nM
27 | N#Cc1ccc(Oc2nc(N)c3ncn([C@@H]4O[C@H](CO)[C@@H](O)[C@H]4O)c3n2)cc1 [Compound 7] | 4 nM
28 | Cc1cc(Oc2nc(N)c3ncn([C@@H]4O[C@H](CO)[C@@H](O)[C@H]4O)c3n2)ccc1F [Compound 13] | 43 nM
29 | OC[C@H]1O[C@@H](n2cnc3c(N4CCNCC4)ncnc32)[C@H](O)[C@@H]1O [Compound 46] | 38 nM
30 | Nc1nc(Oc2ccccc2)nc2c1ncn2[C@@H]1O[C@H](CO)[C@@H](O)[C@H]1O [Compound 6, 2-phenoxyadenosine] | 71 nM

same assay, conditions: pH 7.4; 2 nM [3H]-CGS21680, 90 minutes at 22° C.; read-out: (Ki) nM (pH 7.4)

Row | Structure (SMILES) | Ki
31 | CCCCCCNc1nc(N)c2ncn([C@@H]3O[C@H](CO)[C@@H](O)[C@H]3O)c2n1 [Compound 24] | 290 nM
32 | NC(=O)c1nc(N)c2ncn([C@@H]3O[C@H](CO)[C@@H](O)[C@H]3O)c2n1 [Compound 39] | 610 nM
33 | N#Cc1nc(N)c2ncn([C@@H]3O[C@H](CO)[C@@H](O)[C@H]3O)c2n1 [Compound 38] | 175 nM
34 | CCCCCCNc1nc(N)c2nc(C)n([C@@H]3O[C@H](CO)[C@@H](O)[C@H]3O)c2n1 [Compound 61] | 4800 nM
35 | Nc1nc(NC2CC3CCC2C3)nc2c1ncn2[C@@H]1O[C@H](CO)[C@@H](O)[C@H]1O (stereo partly drawn) [Compound 25] | 120 nM
36 | Nc1nc(Oc2ccc(F)c(F)c2)nc2c1ncn2[C@@H]1O[C@H](CO)[C@@H](O)[C@H]1O [Compound 11] | 3300 nM
37 | CNc1ncnc2c1ncn2[C@@H]1O[C@H](C(=O)NC(C)C)[C@@H](O)[C@H]1O [Compound 51] | 2440 nM
38 | Nc1nc(Oc2cccc(-c3ccccc3)c2)nc2c1ncn2[C@@H]1O[C@H](CO)[C@@H](O)[C@H]1O [Compound 8] | 620 nM
39 | Nc1nc(Oc2cc(F)cc(F)c2F)nc2c1ncn2[C@@H]1O[C@H](CO)[C@@H](O)[C@H]1O [Compound 12] | 5900 nM
40 | Cc1ccc(Oc2nc(N)c3ncn([C@@H]4O[C@H](CO)[C@@H](O)[C@H]4O)c3n2)cc1 [Compound 16] | 720 nM
41 | CCCCCCNc1nc(N)c2ncn([C@@H]3O[C@H](C(=O)NCCCC)[C@@H](O)[C@H]3O)c2n1 [Compound 54] | 540 nM
42 | Cc1nc2c(N)nc(NC3CCCC3)nc2n1[C@@H]1O[C@H](CO)[C@@H](O)[C@H]1O [Compound 60] | 2400 nM
43 | Nc1nc(Oc2cccc(Br)c2)nc2c1ncn2[C@@H]1O[C@H](CO)[C@@H](O)[C@H]1O [Compound 15] | 590 nM
44 | Nc1nc(OCC2CCCC2)nc2c1ncn2[C@@H]1O[C@H](CO)[C@@H](O)[C@H]1O [Compound 32] | 200 nM
45 | CCCCCCOc1nc(N)c2ncn([C@@H]3O[C@H](CO)[C@@H](O)[C@H]3O)c2n1 [Compound 5] | 1500 nM
46 | COc1nc(NCc2ccccc2)c2ncn([C@@H]3O[C@H](CO)[C@@H](O)[C@H]3O)c2n1 [Compound 58] | 6100 nM
47 | CNc1nc(N)c2ncn([C@@H]3O[C@H](CO)[C@@H](O)[C@H]3O)c2n1 [Compound 19] | 1360 nM
48 | Nc1nc(OCC2CC2)nc2c1ncn2[C@@H]1O[C@H](CO)[C@@H](O)[C@H]1O [Compound 3] | 670 nM
49 | CCNC(=O)NC[C@H]1O[C@@H](n2cnc3c(N)ncnc32)[C@H](O)[C@@H]1O [Compound 56] | 6570 nM
50 | COc1nc(N)c2ncn([C@@H]3O[C@H](C(=O)Nc4ccccc4)[C@@H](O)[C@H]3O)c2n1 [Compound 53] | 26100 nM
51 | OC[C@H]1O[C@@H](n2cnc3c(OCC4CCCC4)ncnc32)[C@H](O)[C@@H]1O [Compound 48] | 21000 nM
52 | CN(C)c1nc(N)c2ncn([C@@H]3O[C@H](CO)[C@@H](O)[C@H]3O)c2n1 [Compound 21] | 13300 nM
53 | Nc1nc(NC2CCCCC2)nc2c1ncn2[C@@H]1O[C@H](CO)[C@@H](O)[C@H]1O [Compound 30, 2-cyclohexylamino adenosine] | 1000 nM
54 | CC[C@@H](C)Nc1nc(N)c2ncn(C3OC(CO)C(O)C3O)c2n1 (stereo partly drawn) [Compound 22] | 510 nM
55 | Cc1nc2c(N)nc(NC3CCCCC3)nc2n1[C@@H]1O[C@H](CO)[C@@H](O)[C@H]1O [Compound 59] | 3900 nM
56 | N#Cc1ccc(Oc2nc(N)c3ncn([C@@H]4O[C@H](CO)[C@@H](O)[C@H]4O)c3n2)cc1 [Compound 7] | 1300 nM
57 | Cc1ccccc1Oc1nc(N)c2ncn([C@@H]3O[C@H](CO)[C@@H](O)[C@H]3O)c2n1 [Compound 14] | 22000 nM
58 | Cc1cc(Oc2nc(N)c3ncn([C@@H]4O[C@H](CO)[C@@H](O)[C@H]4O)c3n2)ccc1F [Compound 13] | 3100 nM
59 | OC[C@H]1O[C@@H](n2cnc3c(N4CCNCC4)ncnc32)[C@H](O)[C@@H]1O [Compound 46] | 5000 nM
60 | Nc1nc(Oc2ccccc2)nc2c1ncn2[C@@H]1O[C@H](CO)[C@@H](O)[C@H]1O [Compound 6, 2-phenoxyadenosine] | 2500 nM
